Data reported in article PMC9669016, “First-in-human phase Ia study of the PI3Kα inhibitor CYH33 in patients with solid tumors” (Nature Communications, 2022).
Values joined by “and” are separate entries in the source; they are usually repeats but may differ in a detail not shown here. Equal entries are not always repeated. Where two headings read alike, the source gives them in different places.

How the values were obtained:
advanced solid tumors = experiment: Radiological efficacy per RECIST 1.1 (ORR, DCR, CBR, PFS, DoR, best response); type: in vivo, human; design: key to Best response, individual patient: CR, complete response; PR, partial response; SD, stable disease; PD, progressive disease; Two best responses marked as NE represented SD lasting less than 5 weeks
Experimental: The primary endpoints of the phase Ia included (i) the type and frequency of treatment emergent adverse events (TEAEs) which were assessed per National Cancer Institute Common Terminology Criteria for Adverse Events (NCI-CTCAE) v4.03, laboratory results, electrocardiogram (ECG), cardiac imaging, physical examination findings (including vital signs, weight, and ECOG scores), (ii) number and proportion of subjects who occurred DLTs in each dose group during dose-escalation stage, (iii) the MTD, if the MTD was not observed, the RP2D will be determined through PK/PD data, safety and preliminary efficacy. The secondary endpoints included preliminary efficacy assessments based on ORR, PFS, DoR, DCR, and clinical benefit rate, assessed per RECIST 1.1,PK parameters for CYH33 and its metabolite I27, and changes in PD biomarkers in response to CYH33 treatment.
The analysis of the phase Ia study was pre-planned and reviewed by the SMC. The Kaplan–Meier method was used to summarize time-to-event endpoints. Response rates were summarized using a point estimate and 95% Clopper–Pearson confidence interval. The full analysis set (FAS) included all study patients who received at least one dose of study drug and was used for the analysis of baseline characteristics. The safety analysis set included all study patients who had received at least one dose of the study drug and was used for all safety analysis. The efficacy evaluable analysis set included patients who received at least one dose of CYH33 and had baseline tumor assessment data and at least one post-baseline tumor assessment. All statistical analyses were performed using SAS software v9.3 (Cary, North Carolina, USA). No data were excluded from the analyses. As a phase Ia, open label, dose-escalation and -expansion study, the study was not randomized, and the investigators were not blinded to allocation during trial and outcome assessment.

[1] = design: method as in Study Protocol CYH33-101 Table 2; conditions: in H2O; ref Study Protocol CYH33-101 Table 2; cited from earlier work
[2] = tested on: KYSE410, KYSE510, EC104, EC063, EC074 xenograft models; design: method as in Investigator's Brochure (IB) 12; conditions: ref Investigator's Brochure (IB) 12, cited from earlier work
CYP2C8 = tested on: CYP2C8; design: method as in Investigator's Brochure (IB) 12; conditions: up to 100 µM; ref Investigator's Brochure (IB) 12; cited from earlier work
Caco-2 cells = tested on: Caco-2 cells; design: method as in Investigator's Brochure (IB) 12; conditions: 2.00 - 10.0 µM; efflux transporters may be involved; ref Investigator's Brochure (IB) 12; cited from earlier work
SD rats = tested on: SD rats; design: method as in Investigator's Brochure (IB) 12; conditions: long-term, ref Investigator's Brochure (IB) 12, cited from earlier work
CHL = tested on: CHL; design: method as in Investigator's Brochure (IB) 12; conditions: ref Investigator's Brochure (IB) 12; cited from earlier work
[3] = evaluable analysis set, 30 mg QD, n = 9
[4] = evaluable analysis set, 40 mg QD, n = 19
[5] = evaluable analysis set, 1–20 mg QD, n = 10
[6] = evaluable analysis set, all patients 1–60 mg QD, n = 42
[7] = one patient, gastric cancer (PIK3CA E542K), 30 mg
[8] = one patient, ovarian cancer (PIK3CA E545A), 40 mg

## COC(=O)Nc1cc(C(F)(F)F)c(-c2nc(N3CCOCC3)c3cc(CN4CCN(S(C)(=O)=O)CC4)cn3n2)cn1 [CYH33, methyl (5-(6-((4-(methylsulfonyl)piperazin-1-yl)methyl)−4-morpholinopyrrolo[2,1-f][1,2,4]triazin-2-yl)−4-(trifluoromethyl)pyridin-2-yl)carbamate]
Advanced solid tumors; 1 mg, PIK3CA mutation Unknown
  Best percentage of change from baseline (sum of target lesion diameters), individual patient: 28.8%
  Best response, individual patient: PD
Advanced solid tumors; 5 mg, PIK3CA mutation Unknown
  Best percentage of change from baseline (sum of target lesion diameters), individual patient: 38.8%
  Best response, individual patient: PD
Advanced solid tumors; 10 mg, PIK3CA mutation Unknown
  Best percentage of change from baseline (sum of target lesion diameters), individual patient: -4.6% and 20.8%
  Best response, individual patient: SD and PD
Advanced solid tumors; 20 mg, PIK3CA E545K
  Best percentage of change from baseline (sum of target lesion diameters), individual patient: -84.4% and 13.7% and 12.6% and -23.8%
  Best response, individual patient: PR and PD and SD
Advanced solid tumors; 20 mg, PIK3CA mutation Unknown
  Best percentage of change from baseline (sum of target lesion diameters), individual patient: -6.4% and 1.0%
  Best response, individual patient: PD
Advanced solid tumors; 30 mg dose level
  confirmed ORR: 11.1%
Advanced solid tumors; 30 mg, PIK3CA E542K
  Best percentage of change from baseline (sum of target lesion diameters), individual patient: -22.2% and -39.5%
  Best response, individual patient: SD
Advanced solid tumors; 30 mg, PIK3CA E545K
  Best percentage of change from baseline (sum of target lesion diameters), individual patient: 9.7% and 23.8% and -61.8% and -16.5%
  Best response, individual patient: PD and PR and SD
Advanced solid tumors; 30 mg, PIK3CA H1047L
  Best percentage of change from baseline (sum of target lesion diameters), individual patient: -24.2%
  Best response, individual patient: SD
Advanced solid tumors; 30 mg, PIK3CA H1047R
  Best percentage of change from baseline (sum of target lesion diameters), individual patient: 12.5%
  Best response, individual patient: SD
Advanced solid tumors; 30 mg, PIK3CA mutation Other
  Best percentage of change from baseline (sum of target lesion diameters), individual patient: 10.0%
  Best response, individual patient: SD
Advanced solid tumors; 40 mg dose level
  confirmed ORR: 15.8%
Advanced solid tumors; 40 mg, PIK3CA E545A
  Best percentage of change from baseline (sum of target lesion diameters), individual patient: -100.0%
  Best response, individual patient: CR
Advanced solid tumors; 40 mg, PIK3CA E545K
  Best percentage of change from baseline (sum of target lesion diameters), individual patient: -47.1% and 13.1%
  Best response, individual patient: PR and PD
Advanced solid tumors; 40 mg, PIK3CA H1047R
  Best percentage of change from baseline (sum of target lesion diameters), individual patient: -20.0%
  Best response, individual patient: SD
Advanced solid tumors; 40 mg, PIK3CA Q546K
  Best percentage of change from baseline (sum of target lesion diameters), individual patient: -13.0%
  Best response, individual patient: SD
Advanced solid tumors; 40 mg, PIK3CA Q546R
  Best percentage of change from baseline (sum of target lesion diameters), individual patient: -36.0%
  Best response, individual patient: SD
Advanced solid tumors; 40 mg, PIK3CA mutation Other
  Best percentage of change from baseline (sum of target lesion diameters), individual patient: 8.1% and 2.2% and -29.0% and 12.8% and 7.7% and -28.9% and -13.9%
  Best response, individual patient: PD and SD and NE
Advanced solid tumors; 40 mg, PIK3CA mutation Unknown
  Best percentage of change from baseline (sum of target lesion diameters), individual patient: -66.7% and -13.8% and -13.1% and 28.3% and 0.0% and 38.8%
  Best response, individual patient: PR and SD and PD and NE
Advanced solid tumors; 60 mg, PIK3CA E545K
  Best percentage of change from baseline (sum of target lesion diameters), individual patient: 0.0%
  Best response, individual patient: SD
Advanced solid tumors; 60 mg, PIK3CA mutation Other
  Best percentage of change from baseline (sum of target lesion diameters), individual patient: 28.6%
  Best response, individual patient: PD
Advanced solid tumors; 60 mg, PIK3CA mutation Unknown
  Best percentage of change from baseline (sum of target lesion diameters), individual patient: -7.1% and 68.2%
  Best response, individual patient: PD
Advanced solid tumors; 1–20 mg dose level
  confirmed ORR: 10%
Advanced solid tumors; 42 evaluable patients
  patients with confirmed complete response: 1
  patients with confirmed partial responses (PR): 4
Advanced solid tumors; all evaluable patients (5/42)
  confirmed objective response rate (ORR; CR + PR): 11.9%
Advanced solid tumors; all evaluable patients (15/42)
  disease control rate (DCR; CR + PR + SD ≥ 6 weeks): 35.7%
Advanced solid tumors; breast cancer with PIK3CA mutations (2/5)
  confirmed response rate: 40%
Advanced solid tumors; [3]
  CBR: 1 (11.1) n (%)
  CR: 0 n (%)
  DCR (CR + PR + SD lasting ≥ 6 weeks): 1 (11.1) n (%)
  PR: 1 (11.1) n (%)
  confirmed ORR: 1 (11.1) n (%)
  mDoR (Kaplan–Meier): 80 days
  mPFS (Kaplan–Meier): 79 days
Advanced solid tumors; [4]
  CBR: 3 (15.8) n (%)
  CR: 1 (5.3) n (%)
  DCR (CR + PR + SD lasting ≥ 6 weeks): 10 (52.6) n (%)
  PR: 2 (10.5) n (%)
  confirmed ORR: 3 (15.8) n (%)
  mDoR (Kaplan–Meier): 152 days
  mPFS (Kaplan–Meier): 121 days
Advanced solid tumors; [5]
  CBR: 2 (20.0) n (%)
  CR: 0 n (%)
  DCR (CR + PR + SD lasting ≥ 6 weeks): 3 (30.0) n (%)
  PR: 1 (10.0) n (%)
  confirmed ORR: 1 (10.0) n (%)
  mDoR (Kaplan–Meier): 77 days
  mPFS (Kaplan–Meier): 47 days
Advanced solid tumors; [6]
  CBR: 6 (14.3) n (%)
  CR: 1 (2.4) n (%)
  DCR (CR + PR + SD lasting ≥ 6 weeks): 15 (35.7) n (%)
  PR: 4 (9.5) n (%)
  confirmed ORR: 5 (11.9) n (%)
  mDoR (Kaplan–Meier): 80 days
  mPFS (Kaplan–Meier): 79 days
Advanced solid tumors; evaluable patients harboring PIK3CA mutations (4/28)
  confirmed objective response rate: 14.3%
Advanced solid tumors; evaluable patients with PIK3CA mutations (13/28)
  DCR: 46.4%
Advanced solid tumors; one patient, breast cancer (Luminal B, HER2-, PIK3CA E545K), 40 mg
  DoR: 22.0 weeks
Advanced solid tumors; [7]
  time of progressive disease: 11 week
  time of treatment to PR: 6 weeks
Advanced solid tumors; [8]
  DoR (longest): 15.2 months
  time of treatment to CR: 29.3 weeks
  time of treatment to PR: 5.3 weeks
Advanced solid tumors; ovarian cancer with PIK3CA mutations (2/5)
  confirmed response rate: 40%
[1]
  pKa: 4.86 ± 0.06
[2]; 50 mg/kg dose group, subcutaneous xenograft tumor model
  T/C%: < 20%
[2]; oral for 21 days
  effective dose in nude mice: 12.5 mg/kg
CYP2C8
  inhibition of CYP2C8: did not inhibit
Caco-2 cells
  permeability: moderately permeable
SD rats; female SD rats
  highest non-severely toxic dose (HNSTD): 3 mg/kg
SD rats; male SD rats
  highest non-severely toxic dose (HNSTD): 8 mg/kg
CHL
  CHL chromosomal aberration assay result: negative
